Laboratory results published in the supplement of paper PMC11061612.

Columns and labels:
Assay in all cases: combination Emax (second highest fraction inhibited in the dose matrix, 72 h); higher = more inhibition; extreme values may be limits of the assay
[1] = test system: NCI-H196 (Small Cell Lung Carcinoma)
In short: (§1)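 Bliss excess equals the observed combination effect minus the expected value EA + EB − EA·EB, where EA and EB are the effects of each agent alone. Combination Emax is the second-highest inhibition within the matrix. Inhibition was scaled from CellTiter-Glo 2.0 luminescence, with 0 set by vehicle wells and 1 by blank wells, after 72 hours of two-drug dosing of cells plated in 1536-well plates.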

[2] = test system: COLO-684 (Endometrial Carcinoma)
In short: as §1

[3] = test system: NCI-H1755 (Lung Adenocarcinoma)
In short: as §1

[4] = test system: HSC-3 (Oral Cavity Carcinoma)
In short: as §1

CHL-1 (Melanoma) = test system: CHL-1 (Melanoma)
In short: as §1

[5] = test system: PC-14 (Lung Adenocarcinoma)
In short: as §1

[6] = test system: CML-T1 (Chronic Myelogenous Leukemia)
In short: as §1

HuO-3N1 (Osteosarcoma) = test system: HuO-3N1 (Osteosarcoma)
In short: as §1

[7] = test system: SW684 (Other Solid Carcinomas)
In short: as §1

[8] = test system: FLO-1 (Esophageal Adenocarcinoma)
In short: as §1

[9] = test system: AsPC-1 (Pancreatic Carcinoma)
In short: as §1

[10] = test system: OCI-AML5 (Acute Myeloid Leukemia)
In short: as §1

KYM-1 (Rhabdomyosarcoma) = test system: KYM-1 (Rhabdomyosarcoma)
In short: as §1

RT4 (Bladder Carcinoma) = test system: RT4 (Bladder Carcinoma)
In short: as §1

[11] = test system: NCI-H1623 (Lung Adenocarcinoma)
In short: as §1

ES-2 (Ovarian Carcinoma) = test system: ES-2 (Ovarian Carcinoma)
In short: as §1

[12] = test system: NCI-H1155 (Non-Small Cell Lung Carcinoma)
In short: as §1

[13] = test system: SK-MM-2 (Plasma Cell Myeloma)
In short: as §1

[14] = test system: OV-90 (Ovarian Carcinoma)
In short: as §1

[15] = test system: OVTOKO (Ovarian Carcinoma)
In short: as §1

SMILES	combination Emax [1]	combination Emax [2]	combination Emax [3]	combination Emax [4]	combination Emax (CHL-1 (Melanoma))	combination Emax [5]	combination Emax [6]	combination Emax (HuO-3N1 (Osteosarcoma))	combination Emax [7]	combination Emax [8]	combination Emax [9]	combination Emax [10]	combination Emax (KYM-1 (Rhabdomyosarcoma))	combination Emax (RT4 (Bladder Carcinoma))	combination Emax [11]	combination Emax (ES-2 (Ovarian Carcinoma))	combination Emax [12]	combination Emax [13]	combination Emax [14]	combination Emax [15]
CN(CCO)CC[C@H](CSc1ccccc1)Nc1ccc(S(=O)(=O)NC(=O)c2ccc(N3CCC([C@@H](O)c4ccccc4-c4ccc(Cl)cc4)CC3)cc2)cc1S(=O)(=O)C(F)(F)F [AZD4320] + C[C@@H](Nc1cc(F)cc(F)c1)c1cc(C(=O)N(C)C)cc2c(=O)cc(N3CCOCC3)oc12 [AZD8186] (first compound max 1 µM, 7x7, partner max 3 µM)	0.517	0.396	0.45	0.711	0.408	0.297	1	0.441	0.702	0.486	0.739	1	0.197	0.583	0.865	0.334	0.97	1	0.795	
CN(CCO)CC[C@H](CSc1ccccc1)Nc1ccc(S(=O)(=O)NC(=O)c2ccc(N3CCC([C@@H](O)c4ccccc4-c4ccc(Cl)cc4)CC3)cc2)cc1S(=O)(=O)C(F)(F)F [AZD4320] + CCN(CCO)CCCOc1ccc2c(Nc3cc(CC(=O)Nc4cccc(F)c4)[nH]n3)ncnc2c1 [AZD2811] (first compound max 1 µM, 7x7, partner max 1 µM)	0.055	0.178	0.43	0.664	0.73	0.395	0.994	0.152	0.158	0.699	0.541	1	0.125	1	0.197	0.168	0.918	1	0.743	0.166
CN(C)CCCOc1ccc(-c2ccc3ncc4c(c3c2)n(C2CCOCC2)c(=O)n4C)cn1 [AZD0156] + O=C(c1cc(Cc2n[nH]c(=O)c3ccccc23)ccc1F)N1CCN(C(=O)C2CC2)CC1 [Olaparib] (first compound max 3 µM, partner max 3 µM)	0.145	0.307	0.414	0.467	0.186	0.236	0.688	0.289	0.141	0.289	0.297	0.139	0.583	0.174	0.333	0.448	0.452	0.348	0.257	0.33
COc1nnc2ccc(N3CCC(c4ccc(OCCN5CCN(C)C(=O)[C@H]5C)cc4)CC3)nn12 [AZD5153] + CN(CC[C@H](CSC1=CC=CC=C1)NC2=C(C=C(C=C2)S(=O)(=O)NC(=O)C3=CC=C(C=C3)N4CCC(CC4)[C@H](C5=CC=CC=C5C6=CC=C(C=C6)Cl)O)S(=O)(=O)C(F)(F)F)CCO [AZD4320] (first compound max 1 µM, 7x7, partner max 1 µM)	0.276			0.712		0.421		0.466			0.559	1		0.545	0.46	0.745	0.974			0.495
CN(C)CCCOc1ccc(-c2ccc3ncc4c(c3c2)n(C2CCOCC2)c(=O)n4C)cn1 [AZD0156] + C=CCn1c(=O)c2cnc(Nc3ccc(N4CCN(C)CC4)cc3)nc2n1-c1cccc(C(C)(C)O)n1 [AZD1775] (first compound max 1 µM, partner max 1 µM)	0.478	0.688	0.749	0.243	0.623	0.866	0.917	0.183	0.107	0.805	0.317	0.95	0.355	0.314	0.311	0.616	0.342	0.705	0.454	0.542
CC1(C)CCC(CN2CCN(c3ccc(C(=O)NS(=O)(=O)c4ccc(NCC5CCOCC5)c([N+](=O)[O-])c4)c(Oc4cnc5[nH]ccc5c4)c3)CC2)=C(c2ccc(Cl)cc2)C1 [Venetoclax] + CCN(CCO)CCCOc1ccc2c(Nc3cc(CC(=O)Nc4cccc(F)c4)[nH]n3)ncnc2c1 [AZD2811] (first compound max 1 µM, 7x7, partner max 1 µM)	0.126	0.19	0.678	0.436	0.531	0.312	0.991	0.256	0.275	0.359	0.154	1	0.162	0.702	0.211	0.233	0.887	1	0.285	0.263
COc1nnc2ccc(N3CCC(c4ccc(OCCN5CCN(C)C(=O)[C@H]5C)cc4)CC3)nn12 [AZD5153] + Cn1cnc2c(F)c(Nc3ccc(Br)cc3Cl)c(C(=O)NOCCO)cc21 [Selumetinib] (first compound max 1 µM, 7x7, partner max 10 µM)	0.276	0.549	0.564	0.812	0.666	0.589	0.452	0.356	0.531	0.635	0.595	1	0.972	0.686	0.706	0.705	0.686	0.963	0.817	0.471
COc1nnc2ccc(N3CCC(c4ccc(OCCN5CCN(C)C(=O)[C@H]5C)cc4)CC3)nn12 [AZD5153] + CCN(CCO)CCCOc1ccc2c(Nc3cc(CC(=O)Nc4cccc(F)c4)[nH]n3)ncnc2c1 [AZD2811] (first compound max 1 µM, 7x7, partner max 1 µM)	0.314	0.553	0.654	0.773	0.58	0.5	0.684	0.421	0.502	0.565	0.258	0.985	0.85	0.516	0.488	0.618	0.726	0.908	0.352	0.539
CCc1c2c(nc3ccc(O)cc13)-c1cc3c(c(=O)n1C2)COC(=O)[C@]3(O)CC [SN-38] + O=C(c1cc(Cc2n[nH]c(=O)c3ccccc23)ccc1F)N1CCN(C(=O)C2CC2)CC1 [Olaparib] (first compound max 0.3 µM, 7x7, partner max 10 µM)		0.514	0.616	0.847	0.508	0.696	1	0.688	0.556	0.479	0.156		0.875	0.832			0.968	0.89	0.553	
CC(=O)c1c(C)c2cnc(Nc3ccc(N4CCNCC4)cn3)nc2n(C2CCCC2)c1=O [Palbociclib] + CN(CC[C@H](CSC1=CC=CC=C1)NC2=C(C=C(C=C2)S(=O)(=O)NC(=O)C3=CC=C(C=C3)N4CCC(CC4)[C@H](C5=CC=CC=C5C6=CC=C(C=C6)Cl)O)S(=O)(=O)C(F)(F)F)CCO [AZD4320] (first compound max 10 µM, 7x7, partner max 1 µM)	0.276			0.613		0.311		0.494			0.488	1		0.383	0.387	0.621	0.994			0.53
Cc1c2c(nn1C)CSCc1cc(n(C)n1)CSc1cc(c3ccccc3c1)OCCCc1c(C(=O)O)n(C)c3c-2c(Cl)ccc13 [AZD5991] + CN(C)CCCOc1ccc(-c2ccc3ncc4c(c3c2)n(C2CCOCC2)c(=O)n4C)cn1 [AZD0156] (first compound max 1 µM, 7x7, partner max 1 µM)	0.205	0.332	0.361	0.873		0.236	0.223	0.844	0.236	0.36	0.24	1	0.268	0.289	0.891	0.313	0.626	0.355	0.209	0.319
Cc1c2c(nn1C)CSCc1cc(n(C)n1)CSc1cc(c3ccccc3c1)OCCCc1c(C(=O)O)n(C)c3c-2c(Cl)ccc13 [AZD5991] + Cn1cnc2c(F)c(Nc3ccc(Br)cc3Cl)c(C(=O)NOCCO)cc21 [Selumetinib] (first compound max 1 µM, 7x7, partner max 3 µM)	0.132	0.261	0.338	0.744	0.279	0.343	0.344	0.832	0.319	0.386	0.506	1	0.259	0.352	0.898	0.56	0.363	0.356		
C[C@@H](c1ccc2nccn2c1)n1nnc2ncc(-c3cnn(C)c3)nc21 [Savolitinib] + CN(CC[C@H](CSC1=CC=CC=C1)NC2=C(C=C(C=C2)S(=O)(=O)NC(=O)C3=CC=C(C=C3)N4CCC(CC4)[C@H](C5=CC=CC=C5C6=CC=C(C=C6)Cl)O)S(=O)(=O)C(F)(F)F)CCO [AZD4320] (first compound max 1 µM, 7x7, partner max 1 µM)	0.2			0.185		0.173		0.201			0.572	1		0.376	0.255	0.236	0.582			0.274
